According to patent US20190224189A1 (priority 2016, published 2019):
One block for each molecule: values may come before it.

What was measured:
EGFR WT = EGFR WT (Homo sapiens, UniProt P00533); conditions: wild type EGFR and exon 20 insertion mutants, summary of Table 1
[1] = test system: stage IV lung adenocarcinoma carrying Exon 20 ins; conditions: cited from earlier work
[2] = test system: non-small cell lung cancer with insertion mutation in exon 20; conditions: cited from earlier work

Chain of EGFR WT (P00533 668-1210 limits assumed): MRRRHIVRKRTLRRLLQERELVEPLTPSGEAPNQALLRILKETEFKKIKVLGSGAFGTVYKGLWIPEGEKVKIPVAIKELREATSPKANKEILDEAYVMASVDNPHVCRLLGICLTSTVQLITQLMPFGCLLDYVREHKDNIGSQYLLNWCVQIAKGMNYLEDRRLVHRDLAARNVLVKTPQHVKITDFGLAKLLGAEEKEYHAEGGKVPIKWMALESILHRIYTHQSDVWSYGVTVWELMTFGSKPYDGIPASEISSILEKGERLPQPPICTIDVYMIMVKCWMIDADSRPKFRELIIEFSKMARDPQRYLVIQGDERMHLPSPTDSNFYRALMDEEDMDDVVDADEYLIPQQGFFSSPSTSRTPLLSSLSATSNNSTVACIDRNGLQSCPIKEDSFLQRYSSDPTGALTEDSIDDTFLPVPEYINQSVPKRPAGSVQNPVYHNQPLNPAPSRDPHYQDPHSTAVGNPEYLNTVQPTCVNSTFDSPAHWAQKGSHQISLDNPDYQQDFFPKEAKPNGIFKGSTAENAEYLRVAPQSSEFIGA

- inhibitory effect on the enzymatic activity of recombinant human wild type EGFR and the mutated type with inserted mutation in exon 20 (in words) (EGFR WT): strong inhibitory effect
Structure (SMILES): CCOc1cc2ncc(C#N)c(Nc3ccc(OCc4ccccn4)c(Cl)c3)c2cc1NC(=O)/C=C/[C@H]1CCCN1C [Compound A, (E)-N-[4-[[3-chloro-4-(2-pyridylmethoxy)phenyl]amino]-3-cyano-7-ethoxy-6-quinolyl]-3-[(2R)-1-methylpyrrolidin-2-yl]prop-2-enamide]

Structure (SMILES): C#Cc1cccc(Nc2ncnc3cc(OCCOC)c(OCCOC)cc23)c1 [erlotinib]
- partial remission (PR) rate ([1]; 3 of the 11 patients with Exon 20 ins): 27%
- median TTP ([1]; patients with Exon 20 ins who received erlotinib): 3 months

Structure (SMILES): CN(C)C/C=C/C(=O)Nc1cc2c(Nc3ccc(F)c(Cl)c3)ncnc2cc1O[C@H]1CCOC1 [SHR141219 (BIBW-2992)]
- ORR evaluated through IRC ([2]; 23 patients with Exon 20 ins, 95% CI: 1.1%-28%): 8.7%
- median PFS ([2]; patients with Exon 20 ins, 95% CI: 1.8-4.2 months): 2.7 months
- median OS ([2]; patients with Exon 20 ins, 95% CI: 4.1-14.2 months): 9.2 months
